Test results as given in publication PMC7156458, “Synthetic biology based construction of biological activity-related library of fungal decalin-containing diterpenoid pyrones” (Nature Communications, 2020).

Molecular target: Aβ42 (Homo sapiens, UniProt P05067)
Assay: Th-T (thioflavin-T) assay of Aβ42 aggregation
Format: biochemical
Conditions: for Th-T fluorescence, mean of three wells: Aβ42 aggregation time course

Chain of Aβ42 (P05067 672-713): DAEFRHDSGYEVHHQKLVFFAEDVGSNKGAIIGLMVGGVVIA

C=C1CCC2C(C)(CCC=C(C)C)C(O)CCC2(C)C1Cc1c(OC)oc(CO)c(C)c1=O (stereo not drawn) [Compound 12]
delay of the nucleation phase: no delay | elongation of Aβ42: partly suppressed the elongation of Aβ42 | first Th-T assay result (Aβ42 (10 μM) ± DPPs (20 μM), room temperature): suppressed Aβ42 | Th-T fluorescence, mean of three wells (reading M117): 2.054 | Th-T fluorescence, mean of three wells (reading M118): 2.063 | Th-T fluorescence, mean of three wells (reading M119): 2.053 | Th-T fluorescence, mean of three wells (reading M120): 2.05 | Th-T fluorescence, mean of three wells (reading M121): 2.047 | Th-T fluorescence, mean of three wells (reading M122): 2.039 | Th-T fluorescence, mean of three wells (reading M123): 2.052 | Th-T fluorescence, mean of three wells (reading M124): 2.0354 | Th-T fluorescence, mean of three wells (reading M125): 2.03 | Th-T fluorescence, mean of three wells (reading M126): 2.03 | Th-T fluorescence, mean of three wells (reading M127): 2.041 | Th-T fluorescence, mean of three wells (reading M128): 2.036 | Th-T fluorescence, mean of three wells (reading M129): 2.023 | Th-T fluorescence, mean of three wells (reading M130): 2.033 | Th-T fluorescence, mean of three wells (Fig. 7a) (column suffix _10, measurement M19): 2.572 | Th-T fluorescence, mean of three wells (Fig. 7a) (column suffix _10, measurement M20): 2.604 | Th-T fluorescence, mean of three wells (Fig. 7a) (column suffix _10, measurement M21): 2.632 | Th-T fluorescence, mean of three wells (Fig. 7a) (column suffix _10, measurement M22): 2.671 | Th-T fluorescence, mean of three wells (Fig. 7a) (column suffix _10, measurement M23): 2.692 | Th-T fluorescence, mean of three wells (Fig. 7a) (column suffix _10, measurement M24): 2.757 | Th-T fluorescence, mean of three wells (Fig. 7a) (column suffix _10, measurement M25): 2.768 | Th-T fluorescence, mean of three wells (Fig. 7a) (column suffix _10, measurement M26): 2.841 | Th-T fluorescence, mean of three wells (Fig. 7a) (column suffix _10, measurement M27): 2.803 | Th-T fluorescence, mean of three wells (Fig. 7a) (column suffix _10, measurement M28): 2.855 | Th-T fluorescence, mean of three wells (Fig. 7a) (column suffix _10, measurement M29): 2.853 | Th-T assay signal, mean of three wells (Fig. 7a) (column suffix _10, reading M1): 0.2279 | Th-T assay signal, mean of three wells (Fig. 7a) (column suffix _10, reading M2): 0.2383 | Th-T assay signal, mean of three wells (Fig. 7a) (column suffix _10, reading M3): 0.2633 | Th-T assay signal, mean of three wells (Fig. 7a) (column suffix _10, reading M4): 0.2928 | Th-T assay signal, mean of three wells (Fig. 7a) (column suffix _10, reading M5): 0.3222 | Th-T assay signal, mean of three wells (Fig. 7a) (column suffix _10, reading M6): 0.3621 | Th-T assay signal, mean of three wells (Fig. 7a) (column suffix _10, reading M7): 0.3868 | Th-T assay signal, mean of three wells (Fig. 7a) (column suffix _10, reading M8): 0.4315 | Th-T assay signal, mean of three wells (Fig. 7a) (column suffix _10, reading M9): 0.4649 | Th-T assay signal, mean of three wells (Fig. 7a) (column suffix _10, reading M10): 0.5209 | Th-T assay signal, mean of three wells (Fig. 7a) (column suffix _10, reading M11): 0.5656 | Th-T assay signal, mean of three wells (Fig. 7a) (column suffix _10, reading M12): 0.6921 | Th-T assay signal, mean of three wells (Fig. 7a) (column suffix _10, reading M13): 1.089 | Th-T assay signal, mean of three wells (Fig. 7a) (column suffix _10, reading M14): 1.582 | Th-T assay signal, mean of three wells (Fig. 7a) (column suffix _10, reading M15): 1.98 | Th-T assay signal, mean of three wells (Fig. 7a) (column suffix _10, reading M16): 2.245 | Th-T assay signal, mean of three wells (Fig. 7a) (column suffix _10, reading M17): 2.406 | Th-T assay signal, mean of three wells (Fig. 7a) (column suffix _10, reading M18): 2.511 | Fig. 7a Th-T reading, mean of three wells (column suffix _10, reading M85): 3.136 | Fig. 7a Th-T reading, mean of three wells (column suffix _10, reading M86): 3.133 | Fig. 7a Th-T reading, mean of three wells (column suffix _10, reading M87): 3.112 | Fig. 7a Th-T reading, mean of three wells (column suffix _10, reading M88): 3.093 | Fig. 7a Th-T reading, mean of three wells (column suffix _10, reading M89): 3.066 | Fig. 7a Th-T reading, mean of three wells (column suffix _10, reading M90): 3.046 | Fig. 7a Th-T reading, mean of three wells (column suffix _10, reading M91): 3.03 | Fig. 7a Th-T reading, mean of three wells (column suffix _10, reading M92): 3.012 | Fig. 7a Th-T reading, mean of three wells (column suffix _10, reading M93): 2.997 | Fig. 7a Th-T reading, mean of three wells (column suffix _10, reading M94): 2.971 | Fig. 7a Th-T reading, mean of three wells (column suffix _10, reading M95): 2.948 | Fig. 7a Th-T reading, mean of three wells (column suffix _10, reading M96): 2.943 | Fig. 7a Th-T reading, mean of three wells (column suffix _10, reading M97): 2.923 | Fig. 7a Th-T reading, mean of three wells (column suffix _10, reading M98): 2.913 | Fig. 7a Th-T reading, mean of three wells (column suffix _10, reading M99): 2.8964 | Fig. 7a Th-T reading, mean of three wells (column suffix _10, reading M100): 2.873 | Fig. 7a Th-T reading, mean of three wells (column suffix _10, reading M101): 2.854 | Fig. 7a Th-T reading, mean of three wells (column suffix _10, reading M102): 2.835 | Fig. 7a Th-T reading, mean of three wells (column suffix _10, reading M103): 2.818 | Fig. 7a Th-T reading, mean of three wells (column suffix _10, reading M104): 2.806 | Fig. 7a Th-T reading, mean of three wells (column suffix _10, reading M105): 2.7797 | Fig. 7a Th-T reading, mean of three wells (column suffix _10, reading M106): 2.769 | Th-T fluorescence, mean of three wells (Fig. 7a) (column suffix _20, measurement M19): 2.538 | Th-T fluorescence, mean of three wells (Fig. 7a) (column suffix _20, measurement M20): 2.543 | Th-T fluorescence, mean of three wells (Fig. 7a) (column suffix _20, measurement M21): 2.5199 | Th-T fluorescence, mean of three wells (Fig. 7a) (column suffix _20, measurement M22): 2.494 | Th-T fluorescence, mean of three wells (Fig. 7a) (column suffix _20, measurement M23): 2.481 | Th-T fluorescence, mean of three wells (Fig. 7a) (column suffix _20, measurement M24): 2.476 | Th-T fluorescence, mean of three wells (Fig. 7a) (column suffix _20, measurement M25): 2.43 | Th-T fluorescence, mean of three wells (Fig. 7a) (column suffix _20, measurement M26): 2.427 | Th-T fluorescence, mean of three wells (Fig. 7a) (column suffix _20, measurement M27): 2.441 | Th-T fluorescence, mean of three wells (Fig. 7a) (column suffix _20, measurement M28): 2.387 | Th-T fluorescence, mean of three wells (Fig. 7a) (column suffix _20, measurement M29): 2.411 | Th-T fluorescence, mean of three wells (Fig. 7a) (column suffix _20, measurement M30): 2.389 | Th-T assay signal, mean of three wells (Fig. 7a) (column suffix _20, reading M1): 0.2949 | Th-T assay signal, mean of three wells (Fig. 7a) (column suffix _20, reading M2): 0.3314 | Th-T assay signal, mean of three wells (Fig. 7a) (column suffix _20, reading M3): 0.3699 | Th-T assay signal, mean of three wells (Fig. 7a) (column suffix _20, reading M4): 0.6391 | Th-T assay signal, mean of three wells (Fig. 7a) (column suffix _20, reading M5): 1.147 | Th-T assay signal, mean of three wells (Fig. 7a) (column suffix _20, reading M6): 1.822 | Th-T assay signal, mean of three wells (Fig. 7a) (column suffix _20, reading M7): 2.22 | Th-T assay signal, mean of three wells (Fig. 7a) (column suffix _20, reading M8): 2.421 | Th-T assay signal, mean of three wells (Fig. 7a) (column suffix _20, reading M9): 2.522 | Th-T assay signal, mean of three wells (Fig. 7a) (column suffix _20, reading M10): 2.562 | Th-T assay signal, mean of three wells (Fig. 7a) (column suffix _20, reading M11): 2.583 | Th-T assay signal, mean of three wells (Fig. 7a) (column suffix _20, reading M12): 2.606 | Th-T assay signal, mean of three wells (Fig. 7a) (column suffix _20, reading M13): 2.583 | Th-T assay signal, mean of three wells (Fig. 7a) (column suffix _20, reading M14): 2.612 | Th-T assay signal, mean of three wells (Fig. 7a) (column suffix _20, reading M15): 2.602 | Th-T assay signal, mean of three wells (Fig. 7a) (column suffix _20, reading M16): 2.5699 | Th-T assay signal, mean of three wells (Fig. 7a) (column suffix _20, reading M17): 2.585 | Th-T assay signal, mean of three wells (Fig. 7a) (column suffix _20, reading M18): 2.567 | Fig. 7a Th-T reading, mean of three wells (column suffix _20, reading M85): 2.083 | Fig. 7a Th-T reading, mean of three wells (column suffix _20, reading M86): 2.058 | Fig. 7a Th-T reading, mean of three wells (column suffix _20, reading M87): 2.078 | Fig. 7a Th-T reading, mean of three wells (column suffix _20, reading M88): 2.109 | Fig. 7a Th-T reading, mean of three wells (column suffix _20, reading M89): 2.106 | Fig. 7a Th-T reading, mean of three wells (column suffix _20, reading M90): 2.088 | Fig. 7a Th-T reading, mean of three wells (column suffix _20, reading M91): 2.094 | Fig. 7a Th-T reading, mean of three wells (column suffix _20, reading M92): 2.104 | Fig. 7a Th-T reading, mean of three wells (column suffix _20, reading M93): 2.083 | Fig. 7a Th-T reading, mean of three wells (column suffix _20, reading M94): 2.114 | Fig. 7a Th-T reading, mean of three wells (column suffix _20, reading M95): 2.102 | Fig. 7a Th-T reading, mean of three wells (column suffix _20, reading M96): 2.08 | Fig. 7a Th-T reading, mean of three wells (column suffix _20, reading M97): 2.11 | Fig. 7a Th-T reading, mean of three wells (column suffix _20, reading M98): 2.085 | Fig. 7a Th-T reading, mean of three wells (column suffix _20, reading M99): 2.135 | Fig. 7a Th-T reading, mean of three wells (column suffix _20, reading M100): 2.117
